The record followed here is paper PMC2605271 (Journal of clinical neuroscience : official journal of the …, 2008).

Assay [1] deals with T1, serotonin transporter (SERT) (Homo sapiens, UniProt P31645). Description: cell-based.
For assay [2], the target named is T1, serotonin transporter (SERT).
Assay [3] addresses norepinephrine transporter (NET) (Homo sapiens, UniProt P23975). The following applies: 10^−7 M to 10^−3 M, 30 minutes, HEK-hNET cells.
Another assay relates to NET protein expression. As to the kind of experiment: Immunoblotting of NET protein expression in HEK-hNET cells. It is filed as cell-based, human. The following applies: 10^−6 M, 24 hours.

The structures appear in SMILES notation. “Also recorded” adds a separate entry of the source. Where only a bound is given, the exact number is not on record here.

T1 sequence (P31645 whole entry): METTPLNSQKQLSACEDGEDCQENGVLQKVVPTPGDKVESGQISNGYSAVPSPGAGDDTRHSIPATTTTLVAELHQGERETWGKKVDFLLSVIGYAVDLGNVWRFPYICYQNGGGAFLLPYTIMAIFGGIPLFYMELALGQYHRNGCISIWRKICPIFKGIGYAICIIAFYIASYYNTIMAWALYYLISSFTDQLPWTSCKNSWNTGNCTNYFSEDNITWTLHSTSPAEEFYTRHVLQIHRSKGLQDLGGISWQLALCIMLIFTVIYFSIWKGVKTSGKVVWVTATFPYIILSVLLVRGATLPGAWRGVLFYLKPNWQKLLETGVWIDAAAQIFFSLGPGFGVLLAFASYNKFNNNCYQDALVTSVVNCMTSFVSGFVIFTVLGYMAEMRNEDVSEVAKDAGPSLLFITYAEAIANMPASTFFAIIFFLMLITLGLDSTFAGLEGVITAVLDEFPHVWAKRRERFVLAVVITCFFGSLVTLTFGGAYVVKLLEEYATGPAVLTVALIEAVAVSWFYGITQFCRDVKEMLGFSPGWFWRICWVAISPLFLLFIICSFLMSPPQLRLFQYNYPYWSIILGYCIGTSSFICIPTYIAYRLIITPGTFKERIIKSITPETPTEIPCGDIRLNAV
Sequence of norepinephrine transporter (NET) (P23975 whole entry): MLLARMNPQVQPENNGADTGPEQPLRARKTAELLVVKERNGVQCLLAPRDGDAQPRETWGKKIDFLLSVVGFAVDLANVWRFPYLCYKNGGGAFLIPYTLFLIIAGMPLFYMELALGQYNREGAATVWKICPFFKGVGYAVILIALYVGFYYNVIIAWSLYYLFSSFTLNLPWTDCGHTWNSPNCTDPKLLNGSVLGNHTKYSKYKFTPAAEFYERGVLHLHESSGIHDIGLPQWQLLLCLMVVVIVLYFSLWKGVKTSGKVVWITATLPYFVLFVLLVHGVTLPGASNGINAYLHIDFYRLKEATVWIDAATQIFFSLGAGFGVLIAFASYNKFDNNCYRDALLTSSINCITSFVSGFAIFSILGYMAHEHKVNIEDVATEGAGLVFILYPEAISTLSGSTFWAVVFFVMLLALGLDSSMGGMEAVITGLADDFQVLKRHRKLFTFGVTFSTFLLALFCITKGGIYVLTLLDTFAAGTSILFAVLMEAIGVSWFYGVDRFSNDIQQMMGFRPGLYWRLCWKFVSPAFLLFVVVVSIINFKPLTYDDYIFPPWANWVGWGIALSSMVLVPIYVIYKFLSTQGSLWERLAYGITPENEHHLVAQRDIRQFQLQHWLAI

For `CCCC(C)C1(CC)C(=O)NC(=S)NC1=O` (stereo not shown) [Thiopental, thiopental], the EC50 in assay [1] is more than 50 mM. For the same molecule, in assay [2], the “Effect on SERT function ([3H]-5-HT uptake)” value is reported as “failed to have any effect; also recorded: no effect”. For the same molecule, in assay [3], the “Effect on NET function ([3H]-NE uptake)” value is reported as “failed to have any effect; also recorded: no effect; also recorded: No evidence of inhibition”.
For the molecule `CNCCCN1c2ccccc2CCc2ccccc21` [desipramine], the “Change in NET protein expression in response to chronic desipramine treatment” value with NET protein expression is “no changes”.
